{
  "source": "patent US20220211606A1",
  "about": "“LIQUID COMPOSITION FOR INFLUENCING THE MICROBIOTA ON A SUBJECT'S SKIN COMPRISING CHITOSAN” (Medoderm GmbH, priority 2019, published 2022)",
  "key": {"Staphylococcus aureus [1]": {"test_system": "Staphylococcus aureus", "assay": "Microbiome agar matrix test, surface pathogen", "type": "cell-based", "conditions": "20 μl on agar surface; 37° C. over night; inoculum 2.0×10^6 CFU", "experimental": "For the present experiment, the above microbiome organisms are seeded out on an agar plate. Afterwards the organisms are embedded in a special microbiome agar matrix to simulate the epidermis layers. […] In the next step the test formulation is applied onto small areas on the surface and the test setup is incubated at 37° C. over night. After incubation, growth of the matrix-embedded microbiome organisms and superficial Staphylococcus aureus is used for the assessment of an influence of the test formulation on the microbiome organisms. […] If the applied product also causes a growth inhibition of the microbiome organisms, the product is assessed to have negative influence on the human microbiome. A disinfectant agent (isopropanol:water 70:30) is used as […] to inhibit growth of the pathogen as well as the microbiome organisms. Buffer solution (used for dilution, if applied; 0.9% (w/w) NaCl in water) is used as a negative control. The sample volume of test formulation is 20 μl. The inoculum microbiome contains 2.0×10^6 CFU (colony forming units). The inoculum pathogen was set at 2.0×10^6 CFU."}, "Staphylococcus aureus [2]": {"test_system": "Staphylococcus aureus", "assay": "Repopulation of disinfected human skin (Rodac contact plates), pathogen", "type": "in vivo", "conditions": "upper arm disinfected with 70% isopropanol; 0, 1 h, 2 h, 4 h, 6 h; 100 μl on approx. 50 cm^2"}, "[3]": {"test_system": "endogenous skin microflora", "assay": "Repopulation of disinfected human skin after contact with worn clothing (Rodac contact plates)", "type": "in vivo", "conditions": "after 6 h test period, 10 minutes contact with worn clothing, sampled 1 h after removal", "description": "The test germ corresponded to endogenous skin microflora. […] The sample size was approx. 50 cm^2 skin surface area and the sample volume 100 μl. Contact time was 0, 1 h, 2 h, 4 h, 6 h, after contact and 1 h after contact.\nRodac contact plates were used for sampling of microorganisms from human skin (upper arm) before and after treatment. The upper arm region was chosen to prevent contamination by touching and clothing. Disinfection was performed with 70% isopropanol.\nAfter the 6 h test period, the test areas were exposed to worn clothing for 10 minutes, resulting in a typical transfer of microorganism from clothing to the skin surface (time point directly after contact). 1 h after removal of clothing the bacteria were collected from the test areas aby Rodac contact plates."}},
  "data": [
    {"compound": "CC(C)O", "note": "[Disinfection, isopropanol]", "values": [
      {"measurement": "growth of superficial Staphylococcus aureus", "setting": "Staphylococcus aureus [1]", "value": "neither growth on the surface"},
      {"measurement": "Staphylococcus aureus on the test area", "setting": "Staphylococcus aureus [2]", "value": "only found on the “Disinfection” test area"},
      {"measurement": "microorganisms collected 1 h after exposure to worn clothing", "setting": "[3]", "value": "also showed pathogenic organisms (gram-negative bacteria=big colonies)"}
    ]}
  ]
}
